Measurements from patent US20250281479A1, “TREATMENT OF CAVERNOUS ANGIOMAS WITH A 4-SUBSTITUTED PIPERIDINE DERIVATIVE” (Neurelis, Inc., priority 2024, published 2025).

Assays:
[1] = first-in-human single ascending dose and food-effect study, plasma pharmacokinetics; assay type: in vivo; conditions: for Tmax: po; for Thalf: mean
From the text: This was a first-in-human, single center, randomized, double-blind, placebo-controlled, single ascending dose (SAD) study, including a food-effect assessment, in healthy male and female subjects. Up to 44 subjects were included in the study.
The study consisted of 4 sequential cohorts of 8 subjects each (6 active and 2 placebo), randomly assigned to receive a single oral dose of NRL-1049 or matching-placebo under fasting state on Day 1 (See Table 2). In each cohort, a sentinel group of 2 subjects (1 active and 1 placebo) were dosed at least 24 hours prior to enrolling the remaining subjects of the cohort, contingent on the safety profile observed during sentinel dosing, as defined by medical judgment.
Subjects were admitted to the clinical research unit (CRU) on Day −1. On Day 1, following an overnight fast, subjects received a single oral dose of their assigned study treatment. Safety, PK, and exploratory biomarker assessments were performed prior to dosing and at assigned time points during study confinement. Subjects were permitted to leave the CRU following the completion of the 48-hour PK postdose sampling and safety assessments. A safety follow-up phone call was performed on Day 8 (±1 day).
Furthermore, a food-effect assessment was integrated into Cohort 3, in which a single oral 150 mg dose of NRL-1049 or placebo was administered to 12 subjects (10 active and 2 placebo) under fed state in Period 2 (refer to schedule of food-effect Cohort 3 in Table 3). After completion of Period 1 and a washout period of at least 14 days, Cohort 3 subjects repeated the screening procedures to ensure they still met the inclusion and exclusion criteria prior to readmission to the CRU for Period 2. Subjects dosed in Period 1 and who returned for Period 2 (a maximum of 6 active and 2 placebo) were administered the same single oral dose in Period 2 under fed state. In addition, at least 4 new subjects were enrolled in Period 2 only, in order to dose a total of 12 subjects (10 active and 2 placebo), in a 1:1 ratio of male to female. If a subject dosed in Period 1 was unable to return for Period 2, a new subject was enrolled to ensure dosing a total of 12 subjects in Period 2. Newly enrolled subjects only received the study drug in the fed state, and as such were not required to undergo Period 1 activities. There was no sentinel approach in Period 2.
Study drugs (NRL-1049 or placebo) were administered in the morning. The date and time of each dose was recorded. For each subject, all scheduled postdose activities and assessments were performed relative to the time of study drug administration. An oral dose of the assigned formulation was administered to subjects with approximately 240 mL of water at ambient temperature. The capsule(s) were swallowed whole and not chewed or broken. Food and fluid intake other than water were controlled for each confinement period and all subjects. In Cohorts 1, 2, 3 (Period 1), and 4, water was permitted as needed except from 1 hour predose until 1 hour after dosing. In Period 2 of Cohort 3, water was permitted as needed throughout the confinement period. For cohorts under fasting state, subjects were required to fast (abstain from food) for at least 10 hours prior to dosing and for at least 4 hours following dosing. In Period 2 of the food-effect cohort only, following an overnight fast of at least 10 hours, subjects received a standardized high-fat, high-calorie meal 30 minutes prior to study drug administration. An example meal would consist of 2 eggs fried in butter, 2 strips of bacon, 2 slices of toast with butter, 4 ounces of hash brown potatoes, and 8 ounces of whole milk. […] Subjects had to eat the total content of this meal in 30 minutes or less. For all cohorts, a standardized lunch was served at least 4 hours after dosing. A supper, light snack, and other meals were served at appropriate times thereafter, but not until after 9 hours postdose. […]

[2] = nonclinical exposure to NRL-2017 versus NRL-1049 in monkeys; assay type: in vivo
Method: (§1) Exposure to NRL-2017 was similar or greater (up to 5-fold) than that to NRL-1049 in rats when dosed once a day (QD). In monkeys, exposure to NRL-2017 was also greater (up to 33-fold) than that to NRL-1049. When rats were dosed twice a day (BID) for 14 days, there was a decrease in formation of NRL-2017 with exposure to NRL-2017 lower than that of NRL-1049 (ratio as low as 0.06). […] NRL-1049 bound to human serum albumin and human alpha1-acid glycoprotein. […] There was also inhibition of P-glycoprotein (P-gp) (only CACO-2 cells), organic anion transporting polypeptides (OATP) OATP1B1, OATP1B3 and OAT3 (IC50, >100 μM), but no effect on P-gp (MDCK2 cells), breast cancer resistance protein (BCRP), bile salt export pump (BSEP), or MATE2-K. NRL-1049 is a substrate for P-gp, not BCRP. […] This conclusion will be revisited when human pharmacokinetic (PK) data becomes available.

ROCK 2 = ROCK 2 (Homo sapiens, UniProt O75116); assay: ROCK 2 inhibition by metabolites; assay type: biochemical
Sequence of ROCK 2 (O75116 whole entry, species assumed): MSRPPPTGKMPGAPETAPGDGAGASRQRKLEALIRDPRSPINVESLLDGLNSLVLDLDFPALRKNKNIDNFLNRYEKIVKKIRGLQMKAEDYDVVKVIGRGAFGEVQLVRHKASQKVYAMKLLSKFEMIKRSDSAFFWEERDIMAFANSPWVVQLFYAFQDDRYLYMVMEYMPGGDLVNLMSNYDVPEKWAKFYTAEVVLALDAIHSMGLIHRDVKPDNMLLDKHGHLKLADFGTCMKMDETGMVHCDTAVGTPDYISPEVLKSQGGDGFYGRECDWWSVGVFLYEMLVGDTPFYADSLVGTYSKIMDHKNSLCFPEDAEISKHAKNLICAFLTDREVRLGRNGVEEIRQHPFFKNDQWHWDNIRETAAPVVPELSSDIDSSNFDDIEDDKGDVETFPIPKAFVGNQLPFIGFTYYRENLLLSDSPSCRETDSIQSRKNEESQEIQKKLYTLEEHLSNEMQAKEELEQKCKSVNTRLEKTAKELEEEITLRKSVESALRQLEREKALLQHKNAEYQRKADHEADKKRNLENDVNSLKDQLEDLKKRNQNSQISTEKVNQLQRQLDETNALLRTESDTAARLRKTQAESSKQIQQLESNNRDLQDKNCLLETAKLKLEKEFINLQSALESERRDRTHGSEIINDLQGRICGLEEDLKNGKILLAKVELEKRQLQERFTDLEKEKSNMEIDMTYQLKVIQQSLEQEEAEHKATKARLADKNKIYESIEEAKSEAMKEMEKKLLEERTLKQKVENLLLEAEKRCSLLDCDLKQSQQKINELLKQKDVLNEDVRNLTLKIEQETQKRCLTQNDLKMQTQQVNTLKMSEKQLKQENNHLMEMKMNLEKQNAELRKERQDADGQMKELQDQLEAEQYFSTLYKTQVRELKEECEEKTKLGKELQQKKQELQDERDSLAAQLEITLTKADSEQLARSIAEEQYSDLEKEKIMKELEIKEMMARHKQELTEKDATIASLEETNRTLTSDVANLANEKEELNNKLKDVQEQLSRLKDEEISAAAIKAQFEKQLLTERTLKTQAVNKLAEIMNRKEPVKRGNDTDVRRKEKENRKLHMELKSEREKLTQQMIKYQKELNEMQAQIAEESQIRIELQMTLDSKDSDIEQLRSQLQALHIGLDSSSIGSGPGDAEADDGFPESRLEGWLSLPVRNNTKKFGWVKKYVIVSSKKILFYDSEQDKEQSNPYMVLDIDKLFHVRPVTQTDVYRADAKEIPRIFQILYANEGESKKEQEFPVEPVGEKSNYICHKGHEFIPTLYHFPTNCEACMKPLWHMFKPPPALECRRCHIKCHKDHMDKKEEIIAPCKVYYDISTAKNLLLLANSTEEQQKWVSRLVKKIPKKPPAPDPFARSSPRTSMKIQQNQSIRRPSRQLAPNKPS

[3] = tissue distribution and excretion; assay type: in vivo
Method: as §1

[4] = nonclinical pharmacokinetics after a single oral dose; assay type: in vivo, mice, rats, and monkeys
Method: as §1

[5] = nonclinical exposure to NRL-2017 versus NRL-1049 in rats; assay type: in vivo
Method: as §1

[6] = 150 mg NRL-1049, fed compared to fasting state
[7] = 25 to 250 mg NRL-1049, fasting conditions

SMILES: C[C@@H](N)C1CCN(S(=O)(=O)c2cccc3c(O)nccc23)CC1 [NRL-2017, 1-hydroxy NRL-1049]
- food effect on mean AUC0-T and AUCinf [1, 6]: remained consistent
- food effect on mean Cmax [1, 6]: decreased
- food effect on mean elimination half-life [1, 6]: remained consistent
- manner of increase of AUC0-T with dose [1, 7]: greater than dose proportional
- manner of increase of AUC0-Tmax with dose [1, 7]: dose proportional
- manner of increase of AUCinf with dose [1, 7]: greater than dose proportional
- manner of increase of Cmax with dose [1, 7]: greater than dose proportional
- time up to which mean concentrations were quantifiable ([1]; all dose levels of 25 to 250 mg NRL-1049 fasting and 150 mg fed): up to 48 hours
- AUC(0-t) ([1]; both sexes, human, plasma, oral, range over dose range 25 to 250 mg NRL-1049, fasting state, read-out: mean AUC0-T): 478 to 6690 ng·h/mL
- AUC ([1]; both sexes, human, plasma, oral, range over dose range 25 to 250 mg NRL-1049, fasting state, read-out: mean AUC0-Tmax): 35.6 to 457 ng·h/mL
- AUC(0-inf) ([1]; both sexes, human, plasma, oral, range over dose range 25 to 250 mg NRL-1049, fasting state, read-out: mean AUCinf): 546 to 7040 ng·h/mL
- Cmax ([1]; both sexes, human, plasma, oral, range over dose range 25 to 250 mg NRL-1049, fasting state, read-out: mean Cmax): 54.2 to 1520 ng/mL
- half-life ([1]; both sexes, human, plasma, oral, range over the dose groups 25 to 250 mg NRL-1049, fasting state, read-out: mean elimination half-life): 737 to 1040 min
- Tmax ([1]; both sexes, human, plasma, 150 mg, plasma metabolite NRL-2017, median, 150 mg NRL-1049 single oral, Fasted, Cohort 3, N = 6, read-out: Tmax): 1.13 h
- Tmax ([1]; both sexes, human, plasma, 150 mg, plasma metabolite NRL-2017, median, 150 mg NRL-1049 single oral, Fed, Cohort 3, N = 10, read-out: Tmax): 1.75 h
- Tmax ([1]; both sexes, human, plasma, range over single oral doses of 25 to 250 mg NRL-1049, fasting state, read-out: median time to maximum observed plasma concentration (Tmax)): 0.88 to 1.63 h
- Thalf ([1]; plasma metabolite NRL-2017, 150 mg NRL-1049 single oral, Fasted, Cohort 3, N = 6): 12.28 h
- Thalf ([1]; plasma metabolite NRL-2017, 150 mg NRL-1049 single oral, Fed, Cohort 3, N = 10): 12.37 h
- exposure to NRL-2017 relative to NRL-1049 [2]: up to 33 fold
- ROCK 2 inhibition (ROCK 2): potent ROCK 2 inhibitor
- tissue distribution ([3]; brain, aorta, inferior vena cava): distributed to brain and vascular tissue
- excretion ([3]; in vivo): excreted in urine
- exposure versus dose ([4]; in vivo): greater than dose-proportional
- half-life ([4]; mouse, rat, monkey, plasma, single oral dose of NRL-1049, range over mice, rats, and monkeys, read-out: elimination phase half-life (t½)): 34.8 to 342 min
- Tmax ([4]; mouse, rat, monkey, plasma, single oral dose of NRL-1049, range over mice, rats, and monkeys, read-out: time to maximum plasma concentration (Tmax)): 0.5 to 4 h
- exposure to NRL-2017 relative to NRL-1049 ([5]; rats dosed once a day (QD), similar or greater): up to 5 fold
- exposure ratio NRL-2017 to NRL-1049 ([5]; rats dosed twice a day (BID) for 14 days): ≥ 0.06
